Marks after values point to notes of the source that are not given here.
How the values were obtained:
[1] = 1H NMRD profiles and 17O NMR relaxometry in water; format: physicochemical; settings: for q: number of coordinated water molecules
Experimental: The magnetic‐field dependence of the longitudinal relaxation rate of water protons (^1H NMRD) were measured in aqueous solution by using a variable field relaxometer equipped with an HTS‐110 3T Metrology Cryogen‐free Superconducting Magnet (Mede, Italy), operating in the overall range of proton Larmor frequencies of 20–120 MHz (0.47–3.00 T). The measurements were performed using the standard inversion recovery sequence (20 experiments, 3 scans) with a 90° pulse width of 3.5 µs. The temperature was controlled with a Stelar VTC‐91 heater airflow. Additional points in the 0.01–10 MHz frequency range were collected on a Fast‐Field Cycling (FFC) Stelar SmarTracer Relaxometer. T 1 values at 500 MHz were collected on a Bruker Avance III NMR spectrometer operating at 11.7 T. The concentration of Gd^3+ in the solutions was determined by using bulk magnetic susceptibility (BMS) shift measurements performed at 11.7 T. For the measurements in the biological fluid, lyophilized plasma matrix (Siemens Healthcare) was added to 1 mL of [Gd(ent‐L2)] (1.0 mM) or Seronorm (Sero) was solubilized in 5 mL [Gd(ent‐L2)] (1.0 mM) solution. ^1H NMRD of the final solution was measured at 310 K.
The spectra were acquired on a Bruker Avance III spectrometer (11.7 T) using a 5 mm probe under temperature control. An aqueous solution of the complexes ([GdL] = 10–15 mM) was enriched to ca. 2.0% of the ^17O isotope (Cambridge Isotope). The transverse relaxation rates (R 2) were measured as a function of temperature in the 278−350 K range. The simultaneous fit of ^1H NMRD and ^17O NMR profiles data was performed using the Micromath Scientist software (version 2.0, Salt Lake City, UT, USA).

[2] = 0.15 M NaCl, 25 °C; cited from earlier work

In the case of `O=C([O-])CCC(C(=O)[O-])N1CCN(C(CCC(=O)[O-])C(=O)[O-])Cc2cccc(n2)CN(C(CCC(=O)[O-])C(=O)[O-])CC1.[Gd+3]` (mixture of isomers) [[Gd(rac‐L1)]^3−] [2,2’,2’’-[3,6,9,15-tetraazabicyclo[9.3.1]pentadeca-1(15),11,13-triene-3,6,9-triyl]tris(4-carboxybutanoate)gadolinium], the “^298K r 1 [1.5 T]” value ([1]; 298 K, 1.5 T, water) is reported as 9.4 mM⁻¹ s⁻¹, the “r 1 ^310K [1.5 T]” value ([1]; 310 K, 1.5 T, water) is reported as 6.8 mM⁻¹ s⁻¹ and the τ R ([1]; Table 2) is reported as 98 ± 2 ps. The τ R ([1]; Table S20, 298 K) was 98±2 ps, the ER ([1]; fixed in the fitting procedure) was 22^b) kJ mol^-1 and the q ([1]; fixed in the fitting procedure) was 2. For the same compound, the q ([1]; fixed in the fitting procedure, listed as [Gd(rac-L1)]^3-) was 2^b), the “τ M1” value ([1]; residence time of coordinated water 1, 298 K) was 103 ± 5 ns and the “τ M2” value ([1]; residence time of coordinated water 2, 298 K) was 14 ± 2 ns.

For `CC1(N(CC(=O)O)CC(=O)O)CN(CC(=O)O)CCN(CC(=O)O)C1` [AAZTA], the “logK1^H” value [2] is given as 10.06, the “logK2^H” value [2] is given as 6.50 and the “logK3^H” value [2] is given as 3.77. For the same compound, the “logK4^H” value [2] was 2.33 and the “logK5^H” value [2] was 1.51.
